The values below come from US8765741B2, “5,6-dihydro-1H-pyridin-2-one compounds” (Anadys Pharmaceuticals, Inc., priority 2007, dated 2014).

Molecules are shown by their SMILES. Where only a bound is given, the exact number is not on record here.

The assay addresses NS5B polymerase (Hepatitis C virus genotype 1b, UniProt P26663). As to the kind of experiment: biochemical. As to conditions: NS5B polymerase inhibition; 20 nM enzyme, 75 min at 28° C.; read-out: IC50. As for the experimental part: Compounds were tested for HCV polymerase inhibition. Assays were performed in a 96-well streptavidin-coated FlashPlate using 20 nM enzyme, 0.5 μCi of [α-^33P]GTP, 0.6 μM GTP, and 250 nM 5′biotinylated oligo (rG13)/poly rC in 20 mM Tris-HCl, pH 7.5, 5 mM MgCl2, 5 mM dithiothreitol, 0.1 g/L bovine serum albumin, and 100 U/mL RNAse inhibitor. The reaction was stopped by aspiration after 75 min at 28° C. and the plate was washed several times. After washing and drying the plate, incorporated radioactivity was counted using a Microbeta scintillation counter. IC50 values were calculated relative to the uninhibited control and inhibition data were fitted to a 4-parameter IC50 equation.

Sequence of NS5B polymerase (P26663 2420-3010): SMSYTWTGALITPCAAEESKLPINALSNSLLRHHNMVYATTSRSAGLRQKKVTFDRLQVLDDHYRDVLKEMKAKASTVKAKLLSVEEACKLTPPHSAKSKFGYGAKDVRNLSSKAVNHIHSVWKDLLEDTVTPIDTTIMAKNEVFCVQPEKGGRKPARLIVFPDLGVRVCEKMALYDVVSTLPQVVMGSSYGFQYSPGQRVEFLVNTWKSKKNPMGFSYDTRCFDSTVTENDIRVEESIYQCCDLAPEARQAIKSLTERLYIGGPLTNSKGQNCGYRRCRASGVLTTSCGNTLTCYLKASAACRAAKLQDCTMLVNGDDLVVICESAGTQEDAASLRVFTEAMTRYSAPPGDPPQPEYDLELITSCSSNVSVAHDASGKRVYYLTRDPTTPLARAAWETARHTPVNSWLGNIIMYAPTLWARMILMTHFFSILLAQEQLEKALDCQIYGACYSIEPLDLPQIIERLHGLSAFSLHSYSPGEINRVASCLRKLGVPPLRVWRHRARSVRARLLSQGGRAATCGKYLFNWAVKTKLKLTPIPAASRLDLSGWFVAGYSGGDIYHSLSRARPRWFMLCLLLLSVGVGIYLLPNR

The IC50 is the concentration at which inhibition is half-maximal. Turning to `O=C1C(C2=NS(=O)(=O)c3cc(C4CCCS4(=O)=O)ccc3N2)=C(O)[C@@H]2[C@H]3CC[C@H](C3)[C@@H]2N1Cc1ccc(F)cc1` (stereo partly drawn) [Example 21, (1R,2S,7R,8S)-5-[7-(1,1-Dioxo-tetrahydro-1λ^6-thiophen-2-yl)-1,1-dioxo-1,4-dihydro-1λ^6-benzo[1,2,4]thiadiazin-3-yl]-3-(4-fluoro-benzyl)-6-hydroxy-3-aza-tricyclo[6.2.1.0^2,7]undec-5-en-4-one], the IC50 was 20 to 100 nM. Turning to `CC(C)CCN1C(=O)C(C2=NS(=O)(=O)c3cc(NS(C)(=O)=O)ccc3N2)=C(O)[C@@H]2[C@H]3CC[C@H](C3)[C@@H]21` [Example 22, (1R,2S,7R,8S)-N-{3-[6-Hydroxy-3-(3-methyl-butyl)-4-oxo-3-aza-tricyclo[6.2.1.0^2,7]undec-5-en-5-yl]-1,1-dioxo-1,4-dihydro-1λ^6-benzo[1,2,4]thiadiazin-7-yl}-methanesulfonamide], the IC50 lay within 20 to 100 nM. Take `CC(C)CCN1C(=O)C(C2=NS(=O)(=O)c3cc(N(C)S(C)(=O)=O)ccc3N2)=C(O)[C@@H]2[C@H]3CC[C@H](C3)[C@@H]21` [Example 24, (1R,2S,7R,8S)-N-{3-[6-Hydroxy-3-(3-methyl-butyl)-4-oxo-3-aza-tricyclo[6.2.1.0^2,7]undec-5-en-5-yl]-1,1-dioxo-1,4-dihydro-1λ^6-benzo[1,2,4]thiadiazin-7-yl}-N-methyl-methanesulfonamide]: the 50% inhibitory concentration (IC50) fell in the range of 100 to 1000 nM.

Consider `O=C1C(C2=NS(=O)(=O)c3cc(N4CCCS4(=O)=O)ccc3N2)=C(O)[C@@H]2[C@H]3CC[C@H](C3)[C@@H]2N1Cc1ccc(F)cc1` [Example 26, (1R,2S,7R,8S)-5-[7-(1,1-Dioxo-1λ^6-isothiazolidin-2-yl)-1,1-dioxo-1,4-dihydro-1λ^6-benzo[1,2,4]thiadiazin-3-yl]-3-(4-fluoro-benzyl)-6-hydroxy-3-aza-tricyclo[6.2.1.0^2,7]undec-5-en-4-one], for which the concentration for half-maximal inhibition (IC50) was 100 to 1000 nM.

Turning to `CS(=O)(=O)Nc1ccc2c(c1)S(=O)(=O)N=C(C1=C(O)[C@@H]3[C@H]4CC[C@H](C4)[C@@H]3NC1=O)N2` [Example 27, (1R,2S,7R,8S)-N-[3-(6-Hydroxy-4-oxo-3-aza-tricyclo[6.2.1.0^2,7]undec-5-en-5-yl)-1,1-dioxo-1,4-dihydro-1λ^6-benzo[1,2,4]thiadiazin-7-yl]-methanesulfonamide], the half-maximal inhibitory concentration (IC50) is 1000 to 100000 nM. Turning to `O=C1C(C2=NS(=O)(=O)c3ccccc3N2)=C(O)[C@@H]2[C@H]3CC[C@H](C3)[C@@H]2N1Cc1ccc(F)cc1` [Example 28, (1R,2S,7R,8S)-5-(1,1-Dioxo-1,4-dihydro-1λ^6-benzo[1,2,4]thiadiazin-3-yl)-3-(4-fluoro-benzyl)-6-hydroxy-3-aza-tricyclo[6.2.1.0^2,7]undec-5-en-4-one], the half-maximal inhibitory concentration (IC50) is 100 to 1000 nM.

`CS(=O)(=O)Nc1ccc2c(c1)S(=O)(=O)C=C(C1=C(O)[C@@H]3[C@H]4CC[C@H](C4)[C@@H]3N(Cc3ccc(F)cc3)C1=O)N2` [Example 29, N-{3-[(1R,2S,7R,8S)-3-(4-Fluoro-benzyl)-6-hydroxy-4-oxo-3-aza-tricyclo[6.2.1.0^2,7]undec-5-en-5-yl]-1,1-dioxo-1,4-dihydro-1λ^6-benzo[1,4]thiazin-7-yl}-methanesulfonamide]: the IC50 is less than 20 nM. On to `Nc1ccc2c(c1)S(=O)(=O)N=C(C1=C(O)[C@@H]3[C@H]4CC[C@H](C4)[C@@H]3N(Cc3ccc(F)cc3)C1=O)N2` [Example 30, (1R,2S,7R,8S)-5-(7-Amino-1,1-dioxo-1,4-dihydro-1λ^6-benzo[1,2,4]thiadiazin-3-yl)-3-(4-fluoro-benzyl)-6-hydroxy-3-aza-tricyclo[6.2.1.0^2,7]undec-5-en-4-one], for which the half-inhibitory concentration (IC50) was 100 to 1000 nM.

For the compound `CC(C)CCN1C(=O)C(C2=NS(=O)(=O)c3cc(I)ccc3N2)=C(O)[C@@H]2[C@H]3CC[C@H](C3)[C@@H]21` [Example 34, (1R,2S,7R,8S)-6-Hydroxy-5-(7-iodo-1,1-dioxo-1,4-dihydro-1λ^6-benzo[1,2,4]thiadiazin-3-yl)-3-(3-methyl-butyl)-3-aza-tricyclo[6.2.1.0^2,7]undec-5-en-4-one], the concentration for half-maximal inhibition (IC50) is 1000 to 100000 nM. As for `O=C1C(C2=NS(=O)(=O)c3cc(NS(=O)(=O)C4CC4)ccc3N2)=C(O)C2C([C@@H]3CC[C@H]2C3)N1Cc1ccc(F)cc1` (stereo partly drawn) [Example 35, Cyclopropane sulfonic acid{3-[(1R,2S,7R,8S)-3-(4-fluoro-benzyl)-6-hydroxy-4-oxo-3-aza-tricyclo[6.2.1.0^2,7]undec-5-en-5-yl]-1,1-dioxo-1,4-dihydro-1λ^6-benzo[1,2,4]thiadiazin-7-yl}-amide], the IC50 is 20 to 100 nM. As to `CC(C)CCN1C(=O)C(C2=NS(=O)(=O)c3cc(NS(=O)(=O)C4CC4)ccc3N2)=C(O)C2C1[C@@H]1CC[C@H]2C1` (stereo partly drawn) [Example 40, Cyclopropanesulfonic acid{3-(1R,2S,7R,8S)-[6-hydroxy-3-(3-methyl-butyl)-4-oxo-3-aza-tricyclo[6.2.1.0^2,7]undec-5-en-5-yl]-1,1-dioxo-1,4-dihydro-1λ^6-benzo[1,2,4]thiadiazin-7-yl}-amide], the IC50 lay in the range of 20 to 100 nM. On to `O=C1C(C2=NS(=O)(=O)c3cc(NS(=O)(=O)c4ccccc4)ccc3N2)=C(O)[C@@H]2[C@H]3CC[C@H](C3)[C@@H]2N1Cc1ccc(F)cc1` [Example 41, N-{3-[(1R,2S,7R,8S)-3-(4-Fluoro-benzyl)-6-hydroxy-4-oxo-3-aza-tricyclo[6.2.1.0^2,7]undec-5-en-5-yl]-1,1-dioxo-1,4-dihydro-1λ^6-benzo[1,2,4]thiadiazin-7-yl}-benzenesulfonamide], for which the IC50 fell in the range of 20 to 100 nM. Take `CS(=O)(=O)Nc1ccc2c(c1)S(=O)(=O)N=C(C1=C(O)C3C([C@@H]4CC[C@H]3C4)N(C3CCCC3)C1=O)N2` (stereo partly shown) [Example 44]: the IC50 is 100 to 1000 nM. Take `CC(C)OC(=O)N(c1ccc2c(c1)S(=O)(=O)N=C(C1=C(O)C3C([C@@H]4CC[C@H]3C4)N(C3CCCC3)C1=O)N2)S(C)(=O)=O` (stereo partly drawn) [Example 47, N-[3-(1R,2S,7R,8S)-(3-Cyclopentyl-6-hydroxy-4-oxo-3-aza-tricyclo[6.2.1.0^2,7]undec-5-en-5-yl)-1,1-dioxo-1,4-dihydro-1λ^6-benzo[1,2,4]thiadiazin-7-yl]-methanesulfonamide-N-isopropyl carbamate]: the IC50 is 1000 to 100000 nM. Take `CC(C)CCN1C(=O)C(C2=NS(=O)(=O)c3cc(N4CCCC4)ccc3N2)=C(O)[C@@H]2[C@H]3CC[C@H](C3)[C@@H]21` [Example 53, (1R,2S,7R,8S)-5-(1,1-Dioxo-7-pyrrolidin-1-yl-1,4-dihydro-1λ^6-benzo[1,2,4]thiadiazin-3-yl)-6-hydroxy-3-(3-methyl-butyl)-3-aza-tricyclo[6.2.1.0^2,7]undec-5-en-4-one]: the IC50 is 1000 to 100000 nM.

`O=C1C(C2=NS(=O)(=O)c3cc(NS(=O)(=O)c4cccnc4)ccc3N2)=C(O)C2C([C@@H]3CC[C@H]2C3)N1Cc1ccc(F)cc1` (stereo partly drawn) [Example 54, Pyridine-3-sulfonic acid{3-[(1R,2S,7R,8S)-3-(4-fluoro-benzyl)-6-hydroxy-4-oxo-3-aza-tricyclo[6.2.1.0^2,7]undec-5-en-5-yl]-1,1-dioxo-1,4-dihydro-1λ^6-benzo[1,2,4]thiadiazin-7-yl}-amide]: the IC50 lay within 100 to 1000 nM. With `NS(=O)(=O)Nc1ccc2c(c1)S(=O)(=O)N=C(C1=C(O)[C@@H]3[C@H]4CC[C@H](C4)[C@@H]3N(Cc3ccc(F)cc3)C1=O)N2` [Example 55, (1R,2S,7R,8S)-N-{3-[3-(4-Fluoro-benzyl)-6-hydroxy-4-oxo-3-aza-tricyclo[6.2.1.0^2,7]undec-5-en-5-yl]-1,1-dioxo-1,4-dihydro-1λ^6-benzo[1,2,4]thiadiazin-7-yl}-sulfamide] the figure was less than 20 nM; with `CS(=O)(=O)Nc1ccc2c(c1)S(=O)(=O)N=C(C1=C(O)[C@@H]3[C@H]4CC[C@H](C4)[C@@H]3N(Cc3ccccc3)C1=O)N2` [Example 56, (1R,2S,7R,8S)-N-[3-(3-Benzyl-6-hydroxy-4-oxo-3-aza-tricyclo[6.2.1.0^2,7]undec-5-en-5-yl)-1,1-dioxo-1,4-dihydro-1λ^6-benzo[1,2,4]thiadiazin-7-yl]-methanesulfonamide], less than 20 nM. `CC(C)CN1C(=O)C(C2=NS(=O)(=O)c3cc(NS(C)(=O)=O)ccc3N2)=C(O)[C@@H]2[C@H]3CC[C@H](C3)[C@@H]21` [Example 57, (1R,2S,7R,8S)-N-[3-(6-Hydroxy-3-isobutyl-4-oxo-3-aza-tricyclo[6.2.1.0^2,7]undec-5-en-5-yl)-1,1-dioxo-1,4-dihydro-1λ^6-benzo[1,2,4]thiadiazin-7-yl]-methanesulfonamide]: the concentration for half-maximal inhibition (IC50) is 20 to 100 nM. With `CS(=O)(=O)Nc1ccc2c(c1)S(=O)(=O)N=C(C1=C(O)[C@@H]3[C@H]4CC[C@H](C4)[C@@H]3N(Cc3ccc(F)c(Cl)c3)C1=O)N2` [Example 58, (1R,2S,7R,8S)-N-{3-[3-(3-Chloro-4-fluoro-benzyl)-6-hydroxy-4-oxo-3-aza-tricyclo[6.2.1.0^2,7]undec-5-en-5-yl]-1,1-dioxo-1,4-dihydro-1λ^6-benzo[1,2,4]thiadiazin-7-yl}-methanesulfonamide] the figure was less than 20 nM. Turning to `Cc1ccc(CN2C(=O)C(C3=NS(=O)(=O)c4cc(NS(C)(=O)=O)ccc4N3)=C(O)[C@@H]3[C@H]4CC[C@H](C4)[C@@H]32)cc1F` [Example 60, N-{3-[(1R,2S,7R,8S)-3-(3-Fluoro-4-methyl-benzyl)-6-hydroxy-4-oxo-3-aza-tricyclo[6.2.1.0^2,7]undec-5-en-5-yl]-1,1-dioxo-1,4-dihydro-1λ^6-benzo[1,2,4]thiadiazin-7-yl}-methanesulfonamide], the IC50 is 20 to 100 nM. With `O=C1C(C2=NS(=O)(=O)c3cc(Br)cnc3N2)=C(O)C2C([C@@H]3CC[C@H]2C3)N1Cc1ccc(F)cc1` (stereo partly shown) [Example 61] the figure was 1000 to 100000 nM.
